Where a name gives a salt, the structure may show the parent alone. Read-outs that look alike come from different tables or passages of the source.
How the values were obtained:
PKC epsilon = molecular target: T1, PKC epsilon (Homo sapiens, UniProt Q02156); experiment: Biochemical assay for PKC epsilon (fluorescence polarization, Protein Kinase C Assay Kit, Red); settings: read-out: IC50 μM PKCε
T1 construct: purchased Invitrogen P2282
T1 sequence (Q02156 1-737): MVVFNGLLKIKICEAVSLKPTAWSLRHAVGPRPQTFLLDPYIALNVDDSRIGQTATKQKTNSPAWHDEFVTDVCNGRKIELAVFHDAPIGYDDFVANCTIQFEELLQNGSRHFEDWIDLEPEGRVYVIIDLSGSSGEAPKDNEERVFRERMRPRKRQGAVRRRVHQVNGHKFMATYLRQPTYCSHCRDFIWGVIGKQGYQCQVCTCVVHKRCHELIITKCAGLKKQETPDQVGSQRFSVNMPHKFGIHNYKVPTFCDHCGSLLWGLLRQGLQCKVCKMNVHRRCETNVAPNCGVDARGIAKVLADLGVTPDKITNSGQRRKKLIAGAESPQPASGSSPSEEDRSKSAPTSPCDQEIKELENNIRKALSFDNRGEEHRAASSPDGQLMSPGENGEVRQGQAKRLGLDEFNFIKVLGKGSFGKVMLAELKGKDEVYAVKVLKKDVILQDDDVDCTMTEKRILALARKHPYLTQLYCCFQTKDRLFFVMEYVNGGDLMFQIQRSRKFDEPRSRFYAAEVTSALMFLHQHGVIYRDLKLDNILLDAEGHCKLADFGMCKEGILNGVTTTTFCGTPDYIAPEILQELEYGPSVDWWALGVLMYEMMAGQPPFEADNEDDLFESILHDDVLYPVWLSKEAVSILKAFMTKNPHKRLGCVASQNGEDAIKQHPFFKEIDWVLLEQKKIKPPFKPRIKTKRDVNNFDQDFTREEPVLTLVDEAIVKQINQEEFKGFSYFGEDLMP
Outline: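 Read-out was fluorescence-polarization competition between phosphorylated substrate and a rhodamine PKC tracer for an anti-phosphoserine antibody, added with EDTA stop after an 80 min room-temperature kinase reaction with ATP and protein substrate (Mg2+/Ca2+ buffer). Enzyme (10 ng/ml final) was preincubated with compound for 30 min.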

human ROCKα/ROCKII mix = molecular target: T2, human ROCKα/ROCKII mix (Homo sapiens, UniProt O75116); experiment: Biochemical assay for ROCK (fluorescence polarization, ROCK IMAP Kit)
T2 construct: purchased Upstate Biotechnology 14-451
Description: The compounds were tested for inhibition of human ROCKα/ROCKII mix.
The inhibition assays were performed with a fluorescence polarization (FP) assay using the commercially available ROCK IMAP Kit from Molecular Devices (Product ID. No. R8093), essentially in accordance with the protocol supplied by the manufacturer. […] The enzyme mix ROCKα/ROCKII was obtained from Upstate Biotechnology (Product ID No 14-451).
In summary, the compound was screened in the wells of a 384 well plate for enzymatic inhibition with concentrations varying from 100 μM to 0.3 nM using a stepwise 3 (or 2)-fold dilution.
To perform the assay, 1 μl of a solution of the compound to be tested in DMSO (at each concentration) was added to 2 μl of a solution of the enzyme in 10 mM Tris-HCl , 10 mM MgCl2, 0.1% BSA, 0.05% NaN3, pH 7.2. The final concentration of the enzyme was 2.6 nM.
After incubating for 30 minutes at room temperature, 2 μl of a mixture of ATP and the protein substrate in 10 mM Tris-HCl, 10 mM MgCl2, 0.1% BSA, 0.05% NaN3, pH 7.2 was added. The final concentration of the ATP was 10 μM and final concentration of protein substrate was 0.2 μM.
After incubating for 60 minutes at room temperature, 12 μl of the IMAP Binding Solution (mix of the IMAP Binding Buffer A (1×) and the IMAP Binding Reagent (from the ROCK IMAP kit)) was added.
The mixture thus obtained (total volume: 17 μl) was incubated for 60 minutes at room temperature, upon which the fluorescence polarization was measured using an automated plate reader (Perkin Elmer, Model Envision 2100-0010 HTS) with FP filters: excitation filter FITC FP 480 and emission filters FITC FP P-pol 535 and FITC FP S-pol 535 (Perkin-Elmer). The results were fitted to a curve using the XL-Fit algorithm and IC50 values were calculated for each fitted curve, again using the XL-Fit algorithm.

[1] = Table 2, compounds of Formula XIII
[2] = compounds of Formula XIV, Table 3

T2 sequence (O75116 11-552 limits assumed): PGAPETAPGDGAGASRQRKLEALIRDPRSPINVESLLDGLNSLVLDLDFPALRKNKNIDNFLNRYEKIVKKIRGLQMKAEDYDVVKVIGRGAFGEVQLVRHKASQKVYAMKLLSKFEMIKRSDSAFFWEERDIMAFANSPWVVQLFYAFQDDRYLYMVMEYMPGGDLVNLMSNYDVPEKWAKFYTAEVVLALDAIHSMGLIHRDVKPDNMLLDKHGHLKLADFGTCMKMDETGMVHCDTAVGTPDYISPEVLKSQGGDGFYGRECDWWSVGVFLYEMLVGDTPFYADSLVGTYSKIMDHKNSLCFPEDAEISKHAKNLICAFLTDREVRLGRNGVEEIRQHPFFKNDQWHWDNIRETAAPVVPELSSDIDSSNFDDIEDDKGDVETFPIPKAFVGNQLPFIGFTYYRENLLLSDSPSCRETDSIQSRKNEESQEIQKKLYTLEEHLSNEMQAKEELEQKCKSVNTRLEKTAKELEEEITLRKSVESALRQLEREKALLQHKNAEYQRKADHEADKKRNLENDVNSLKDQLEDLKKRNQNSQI

4-{1-Amino-2-[(4-methoxy- cyclohexanecarbonyl)-amino]-ethyl}- N-pyridin-4-yl-benzamide [Compound 44]
IC50 (PKC epsilon; [1]): 5 to 50 µM | IC50 (human ROCKα/ROCKII mix; [1]): 0.5 to 5 µM

4-{1-Amino-2-[(furan-2- ylmethyl)-carbamoyl]-ethyl}- N-pyridin-4-yl-benzamide [Compound 278]
IC50 (PKC epsilon; [2]): 0.5 to 5 µM | IC50 (human ROCKα/ROCKII mix; [2]): 0.05 to 0.5 µM

4-{1-Amino-2-[(pyridin-2- ylmethyl)-carbamoyl]-ethyl}- N-pyridin-4-yl-benzamide [Compound 277]
IC50 (PKC epsilon; [2]): 0.5 to 5 µM | IC50 (human ROCKα/ROCKII mix; [2]): 0.05 to 0.5 µM

4-{1-Amino-2-[(pyridin-4- ylmethyl)-carbamoyl]-ethyl}- N-pyridin-4-yl-benzamide [Compound 276]
IC50 (PKC epsilon; [2]): 0.5 to 5 µM | IC50 (human ROCKα/ROCKII mix; [2]): 0.05 to 0.5 µM

4-{1-Amino-2-[(thiophen-2- ylmethyl)-carbamoyl]-ethyl}- N-pyridin-4-yl-benzamide [Compound 279]
IC50 (PKC epsilon; [2]): 0.5 to 5 µM | IC50 (human ROCKα/ROCKII mix; [2]): 0.05 to 0.5 µM

4-{1-Amino-2-[ethyl-(4-nitro- benzyl}-carbamoyl]-ethyl)-N- pyridin-4-yl-benzamide [Compound 274]
IC50 (PKC epsilon; [2]): 0.5 to 5 µM | IC50 (human ROCKα/ROCKII mix; [2]): 0.05 to 0.5 µM

4-{1-Amino-2-[methyl-(1- phenyl- cyclopropanecarbonyl)- amino]-ethyl}- N-pyridin-4-yl-benzamide [Compound 452]
IC50 (PKC epsilon): 5 to 50 µM | IC50 (human ROCKα/ROCKII mix): 0.5 to 5 µM

4-{1-Amino-2-[methyl-(1- thiophen-2-yl- cyclopropanecarbonyl)- amino]-ethyl}- N-pyridin-4-yl-benzamide [Compound 448]
IC50 (PKC epsilon): 5 to 50 µM | IC50 (human ROCKα/ROCKII mix): 0.5 to 5 µM

4-{1-Amino-2-[methyl-(1- thiophen-3-yl- cyclopropanecarbonyl)- amino]-ethyl}- N-pyridin-4-yl-benzamide [Compound 450]
IC50 (PKC epsilon): 5 to 50 µM | IC50 (human ROCKα/ROCKII mix): 0.5 to 5 µM

4-{1-Amino-2-[methyl-(2- methyl-2-thiophen-2-yl- propionyl)- amino]-ethyl}- N-pyridin-4-yl-benzamide [Compound 447]
IC50 (PKC epsilon): 0.5 to 5 µM | IC50 (human ROCKα/ROCKII mix): 0.5 to 5 µM

4-{1-Amino-2-[methyl-(2- methyl-2-thiophen-3-yl- propionyl)- amino]-ethyl}- N-pyridin-4-yl-benzamide [Compound 449]
IC50 (PKC epsilon): 5 to 50 µM | IC50 (human ROCKα/ROCKII mix): 0.5 to 5 µM

4-{1-Amino-2-[methyl-(2- naphthalen-1-yl-acetyl)- amino]-ethyl}- N-pyridin-4-yl-benzamide [Compound 435]
IC50 (PKC epsilon): 5 to 50 µM | IC50 (human ROCKα/ROCKII mix): 0.5 to 5 µM

4-{1-Amino-2-[methyl-(2- naphthalen-2-yl-acetyl)- amino]-ethyl}- N-pyridin-4-yl-benzamide [Compound 434]
IC50 (PKC epsilon): 0.5 to 5 µM | IC50 (human ROCKα/ROCKII mix): 0.05 to 0.5 µM

4-{1-amino-2-[2-(4- trifluoromethyl-phenyl)- ethylcarbamoyl]-ethyl}-N- pyridin-4-yl-benzamide [Compound 309]
IC50 (PKC epsilon; [2]): 0.5 to 5 µM | IC50 (human ROCKα/ROCKII mix; [2]): 0.05 to 0.5 µM

4-{1-amino-2-[2-(4-bromo-2- methoxy-phenyl)- ethylcarbamoyl]-ethyl}-N- pyridin-4-yl-benzamide [Compound 310]
IC50 (PKC epsilon; [2]): 0.5 to 5 µM | IC50 (human ROCKα/ROCKII mix; [2]): 0.05 to 0.5 µM

4-{1-amino-2-[2-(4-methy)- octanoylamino]-ethyl}-N-pyridin-4-yl- benzamide [Compound 37]
IC50 (PKC epsilon; [1]): 0.5 to 5 µM | IC50 (human ROCKα/ROCKII mix; [1]): 0.05 to 0.5 µM

4-{Amino-[1-(2-1H-indol-3-yl-acetyl)-pyrrolidin-2-yl]-methyl}-N-pyridin-4-yl-benzamide [Compound 545]
IC50 (PKC epsilon): 0.5 to 5 µM | IC50 (human ROCKα/ROCKII mix): 0.05 to 0.5 µM

N[C@H](CC(=O)NC1COc2ccccc21)c1ccc(C(=O)Nc2ccncc2)cc1 (mixture of isomers) [Compound 403, 4-[(R)-1-Amino-2-(2,3-dihydro-benzofuran-3-ylcarbamoyl)-ethyl]-N-pyridin-4-yl-benzamide dihydrochloric acid salt]
IC50 (PKC epsilon): < 0.05 µM | IC50 (human ROCKα/ROCKII mix): < 0.05 µM

N[C@@H](CC(=O)NC1COc2ccccc21)c1ccc(C(=O)Nc2ccncc2)cc1 (mixture of isomers) [Compound 404, 4-[(S)-1-Amino-2-(2,3-dihydro-benzofuran-3-ylcarbamoyl)-ethyl]-N-pyridin-4-yl-benzamide dihydrochloric acid salt]
IC50 (PKC epsilon): 0.5 to 5 µM | IC50 (human ROCKα/ROCKII mix): 0.05 to 0.5 µM

CC(C)(C)ON=Cc1cccc(C(=O)NCC(N)c2ccc(C(=O)Nc3ccncc3)cc2)c1 (racemic) [Compound 101, 4-{1-amino-2-[(3-tert-butoxyimino-methyl)-benzoylamino]-ethyl}-N-pyridin-4-yl-benzamide]
IC50 (PKC epsilon; [1]): 0.5 to 5 µM | IC50 (human ROCKα/ROCKII mix; [1]): 0.5 to 5 µM

CC(C)(C)ON=Cc1ccc(C(=O)NCC(N)c2ccc(C(=O)Nc3ccncc3)cc2)cc1 (racemic) [Compound 102, 4-{1-amino-2-[(4-tert-butoxyimino-methyl)-benzoylamino]-ethyl}-N-pyridin-4-yl-benzamide]
IC50 (PKC epsilon; [1]): 5 to 50 µM | IC50 (human ROCKα/ROCKII mix; [1]): 0.5 to 5 µM

NC(CC(=O)NC1CCCc2ccccc21)c1ccc(C(=O)Nc2ccncc2)cc1 (single isomer, unassigned) [Compound 221]
IC50 (PKC epsilon; [2]): 0.05 to 0.5 µM | IC50 (human ROCKα/ROCKII mix; [2]): 0.05 to 0.5 µM

NC(CC(=O)NC1CCCc2ccccc21)c1ccc(C(=O)Nc2ccncc2)cc1 (single isomer, unassigned) [Compound 222]
IC50 (PKC epsilon; [2]): 5 to 50 µM | IC50 (human ROCKα/ROCKII mix; [2]): 0.05 to 0.5 µM

CCNC(=S)NCC(N)c1ccc(C(=O)Nc2ccncc2)cc1 (centres unmarked) [Compound 1, 4-[1-amino-2-(3-ethyl-thioureido)-ethyl]-N-pyridin-4-yl-benzamide]
IC50 (PKC epsilon): 0.5 to 5 µM | IC50 (human ROCKα/ROCKII mix): 0.5 to 5 µM

CCCCNC(=O)NCC(N)c1ccc(C(=O)Nc2ccncc2)cc1 (centres unmarked) [Compound 2, 4-[1-amino-2-(3-butyl-ureido)-ethyl]-N-pyridin-4-yl-benzamide]
IC50 (PKC epsilon): 0.5 to 5 µM | IC50 (human ROCKα/ROCKII mix): 0.5 to 5 µM

CC(C)(C)NC(=O)NCC(N)c1ccc(C(=O)Nc2ccncc2)cc1 (centres unmarked) [Compound 3, 4-[1-amino-2-(3-tert-butyl-ureido)-ethyl]-N-pyridin-4-yl-benzamide]
IC50 (PKC epsilon): 0.5 to 5 µM | IC50 (human ROCKα/ROCKII mix): 0.5 to 5 µM

NC(CNC(=O)NC1CCCC1)c1ccc(C(=O)Nc2ccncc2)cc1 (centres unmarked) [Compound 4, 4-[1-amino-2-(3-cyclopentyl-ureido)-ethyl]-N-pyridin-4-yl-benzamide]
IC50 (PKC epsilon): 0.5 to 5 µM | IC50 (human ROCKα/ROCKII mix): 0.5 to 5 µM

NC(CNC(=O)NC1CCCCC1)c1ccc(C(=O)Nc2ccncc2)cc1 (centres unmarked) [Compound 5, 4-[1-amino-2-(3-cyclohexyl-ureido)-ethyl]-N-pyridin-4-yl-benzamide]
IC50 (PKC epsilon): 5 to 50 µM | IC50 (human ROCKα/ROCKII mix): 0.5 to 5 µM

CCOC(=O)CCNC(=O)NCC(N)c1ccc(C(=O)Nc2ccncc2)cc1 (centres unmarked) [Compound 6, 3-(3-{2-amino-2-[4-(pyridin-4-ylcarbamoyl)-phenyl]-ethyl}-ureido)-propionic acid ethyl ester]
IC50 (PKC epsilon): 5 to 50 µM | IC50 (human ROCKα/ROCKII mix): 0.5 to 5 µM

NC(CNC(=O)NCc1ccccc1)c1ccc(C(=O)Nc2ccncc2)cc1 (centres unmarked) [Compound 7, 4-[1-amino-2-(3-benzyl-ureido)-ethyl]-N-pyridin-4-yl-benzamide]
IC50 (PKC epsilon): 0.5 to 5 µM | IC50 (human ROCKα/ROCKII mix): 0.05 to 0.5 µM

Cc1ccc(CNC(=O)NCC(N)c2ccc(C(=O)Nc3ccncc3)cc2)cc1 (centres unmarked) [Compound 8, 4-{1-amino-2-[3-(4-methyl-benzyl)-ureido]-ethyl}-N-pyridin-4-yl-benzamide]
IC50 (PKC epsilon): 0.5 to 5 µM | IC50 (human ROCKα/ROCKII mix): 0.05 to 0.5 µM

Source: patent US20100168102A9, “Amide Derivatives as Kinase Inhibitors” (Devgen NV, priority 2005, published 2010)
